Experimental data: PMC12372887, “Mechanism and cellular actions of the potent AMPK inhibitor BAY-3827” (Science Advances, 2025)
“Also recorded” adds a separate entry of the source.

Assays:
[1] = tested on: AMPKα1α2+/+ control primary hepatocytes; experiment: Lipogenesis assay ([14C]-acetate incorporation into fatty acids); type: cell-based, mouse
Method: Mouse hepatocytes were isolated by collagenase perfusion as previously described ([47]). Hepatocytes were seeded in medium Eagle-199 (MEM-199) (#41150, Thermo Fisher Scientific) containing penicillin G (100 U/ml), streptomycin (100 μg/ml), and 10% (v/v) fetal bovine serum (FBS). Hepatocytes were left for attachment (3 to 4 hours) and serum-starved overnight at 37°C with 5% CO2 in MEM-199 supplemented with penicillin G (100 U/ml), streptomycin (100 μg/ml), 10 nM insulin, and 100 nM dexamethasone. […] Cells were then harvested in 0.5 ml of phosphate-buffered saline (PBS), transferred into 1 ml of 40% KOH and 2 ml of methanol followed by 1-hour incubation at 80°C. Lipids were […] by acidifying the samples in 37% HCl and extracted with petroleum ether. Extracts were allowed to evaporate to dryness and then dissolved in Ultima Gold scintillation fluid for determination of [^14C]-acetate incorporation into lipids.

ULK1 = biological target: T1, ULK1 (Homo sapiens, UniProt O75385); experiment: Cell-free ULK1 kinase assay (S108tide); type: biochemical; conditions: increasing concentrations, 0 to 1 μM
T1 sequence (O75385 1-1050): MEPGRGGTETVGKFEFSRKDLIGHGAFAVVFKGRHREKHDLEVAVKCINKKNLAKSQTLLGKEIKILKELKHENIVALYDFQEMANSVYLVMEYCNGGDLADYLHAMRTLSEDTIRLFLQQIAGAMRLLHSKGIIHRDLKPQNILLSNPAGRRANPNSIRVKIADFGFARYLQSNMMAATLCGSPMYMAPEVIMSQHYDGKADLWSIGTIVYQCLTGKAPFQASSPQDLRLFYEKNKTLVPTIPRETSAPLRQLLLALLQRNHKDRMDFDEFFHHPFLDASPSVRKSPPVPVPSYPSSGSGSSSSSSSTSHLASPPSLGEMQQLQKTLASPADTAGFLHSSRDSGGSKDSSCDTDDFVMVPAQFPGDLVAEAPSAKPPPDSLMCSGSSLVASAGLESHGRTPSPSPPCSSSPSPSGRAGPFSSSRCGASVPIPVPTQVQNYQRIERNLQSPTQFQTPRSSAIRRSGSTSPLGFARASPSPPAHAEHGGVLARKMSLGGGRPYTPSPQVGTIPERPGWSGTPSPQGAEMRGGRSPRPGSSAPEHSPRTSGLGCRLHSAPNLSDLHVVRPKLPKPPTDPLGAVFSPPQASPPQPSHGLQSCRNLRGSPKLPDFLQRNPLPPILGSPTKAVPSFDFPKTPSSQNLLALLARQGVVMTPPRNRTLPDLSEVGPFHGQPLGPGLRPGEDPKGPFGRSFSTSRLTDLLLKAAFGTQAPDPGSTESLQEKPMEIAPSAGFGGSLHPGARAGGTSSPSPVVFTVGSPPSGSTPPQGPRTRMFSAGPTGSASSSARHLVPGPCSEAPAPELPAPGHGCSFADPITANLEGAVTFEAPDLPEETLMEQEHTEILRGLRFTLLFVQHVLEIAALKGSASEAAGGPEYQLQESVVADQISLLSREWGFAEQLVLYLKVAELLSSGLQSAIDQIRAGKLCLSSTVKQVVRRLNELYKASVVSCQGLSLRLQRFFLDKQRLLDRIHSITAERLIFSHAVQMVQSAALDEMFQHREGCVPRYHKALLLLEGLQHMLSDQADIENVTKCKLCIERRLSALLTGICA
Method: (§1) Heterotrimeric human AMPK FLAG- α1β1γ1, FLAG- α2β1γ1, and FLAG- α2β2γ1, as well as human FLAG-CaMKK2 and FLAG-ULK1, were produced in mammalian HEK293 cells as described ([66], [67]). For AMPK expression, the cells were triply transfected at 60% confluency using FuGene HD (Roche Applied Science) and 1 μg of pcDNA3 plasmid expression constructs for AMPK Flag-α1, β1-Myc, β2-Myc, and HA-γ1. For CaMKK2 expression, the cells were transfected with 1 μg of pcDNA3 Flag-CaMKK2 plasmid. For ULK1 expression, the cells were transfected with […] of pcDNA3 FLAG-ULK1 plasmid. After 48 hours, the transfected cells were harvested by rinsing with ice-cold PBS, followed by rapid lysis using 500 μl of lysis buffer. AMPK, CaMKK2, and ULK1 kinase activities were determined by phosphorylation of synthetic peptide substrates: SAMS (HMRSAMSGLHLVKRR), CaMKKtide ([…]), and S108tide. (KLPLTRSHNNFVARRR), respectively. Briefly, recombinant AMPK, CaMKK2, or ULK1 were immunoprecipitated from 10 μg of transfected cultured cell lysate using 10 μl of anti-FLAG M2 agarose beads [50% (v/v)] […] Radioactivity was quantified by liquid scintillation counting. […]

CaMKK2 = biological target: T2, CaMKK2 (Homo sapiens, UniProt Q96RR4); experiment: Cell-free CaMKK2 kinase assay (CaMKKtide); type: biochemical; conditions: increasing concentrations, 0 to 1 μM
T2 construct: made in house; host or cells: HEK293 (transient transfection, anti-FLAG immunoprecipitate)
T2 sequence (Q96RR4 whole entry): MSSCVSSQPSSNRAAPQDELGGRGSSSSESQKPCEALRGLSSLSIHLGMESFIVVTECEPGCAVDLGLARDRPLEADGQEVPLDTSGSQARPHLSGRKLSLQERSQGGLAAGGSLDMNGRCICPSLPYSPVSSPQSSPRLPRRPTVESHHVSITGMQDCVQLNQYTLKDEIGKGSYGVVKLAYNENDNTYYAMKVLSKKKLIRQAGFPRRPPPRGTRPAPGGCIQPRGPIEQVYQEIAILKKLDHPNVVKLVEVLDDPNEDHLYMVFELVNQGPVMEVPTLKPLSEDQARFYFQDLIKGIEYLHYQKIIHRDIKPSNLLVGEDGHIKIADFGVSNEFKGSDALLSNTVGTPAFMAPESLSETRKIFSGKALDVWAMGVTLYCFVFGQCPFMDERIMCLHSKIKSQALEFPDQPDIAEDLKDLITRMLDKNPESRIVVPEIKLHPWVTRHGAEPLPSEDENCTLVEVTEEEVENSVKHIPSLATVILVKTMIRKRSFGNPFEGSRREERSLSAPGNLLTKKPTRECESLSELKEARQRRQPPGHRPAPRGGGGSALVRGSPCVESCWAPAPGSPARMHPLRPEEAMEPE
Method: as §1

Structure (SMILES)	rescue of MK-8722–mediated inhibition of lipogenesis ([1]; 2.5 and 5 μM, + MK-8722 (10 μM))	stimulation of lipogenesis ([1]; compound alone, 2.5 and 5 μM)	inhibitory effect on kinase activity (ULK1)	inhibitory effect on kinase activity (CaMKK2)	effect on lipogenesis ([1]; 5 μM, vehicle- and MK-8722–treated conditions)
CCc1ccccc1C(=O)Nc1n[nH]c2c(C)c(F)c(C3C(C#N)=C(C)N(C)C(C)=C3C#N)cc12 [BAY-3827, N-[5-(3,5-dicyano-1,2,6-trimethyl-4H-pyridin-4-yl)-6-fluoro-7-methyl-1H-indazol-3-yl]-2-ethylbenzamide]	dose-dependently rescued; also recorded: fully reversing	70 to 90%	no inhibitory effect	no inhibitory effect	–
CC1=C(C#N)C(c2ccc3c(c2)c(NC(=O)c2ccccc2C)nn3C)C(C#N)=C(C)N1 [BAY-974, N-[5-(3,5-dicyano-2,6-dimethyl-1,4-dihydropyridin-4-yl)-1-methylindazol-3-yl]-2-methylbenzamide]	–	–	no inhibitory effect	no inhibitory effect	no effect
